Measurements: patent publication US20240018153A1, “BENZENESULFONAMIDE DERIVATIVES AND USES THEREOF” (2692372 ONTARIO, INC., priority 2020, published 2024)

Legend:
BTK = BTK (Homo sapiens (Human), UniProt Q06187); assay: Time-dependent inhibition of BTK (HTRF); assay type: biochemical; settings: pre-incubation 0-45 min; for Time-dependent inhibition of BTK: product formation versus pre-incubation time: mono-exponential decay fit
Experimental: For the time-dependent inhibition experiments, the activity of BTK kinases was monitored using a HTRF® KinEASE-TK kit from Cisbio (62TK0PEC) as described above. […] The pre incubation times were 0, 1, 3, 5, 10, 15, 30 and 45 min. After the preincubation, reaction was initiated by adding biotinylated substrate and ATP and the reaction was allowed to proceed for 45 min. […] After 60 min of incubation, the fluorescence emission was measured at 620 nm and 665 nm. The ratio of Em 665 nm to Em 620 nm was proportional to the amount of substrate phosphorylated by the kinase. Product formation vs pre-incubation time data were fitted to a one phase exponential decay equation using GraphPad Prism. The same product formation vs inhibitor concentration data were also fitted to a log(antagonist) vs. response—Variable slope equation in GraphPad Prism to provide IC50 values at different pre incubation times.

EGFR = EGFR (Homo sapiens (Human), UniProt P00533); assay: Time-dependent inhibition of EGFR (HTRF); assay type: biochemical; settings: pre-incubation 0-60 min; for Time-dependent inhibition of EGFR: product formation versus pre-incubation time: mono-exponential decay fit
Sequence of EGFR (P00533 25-1210): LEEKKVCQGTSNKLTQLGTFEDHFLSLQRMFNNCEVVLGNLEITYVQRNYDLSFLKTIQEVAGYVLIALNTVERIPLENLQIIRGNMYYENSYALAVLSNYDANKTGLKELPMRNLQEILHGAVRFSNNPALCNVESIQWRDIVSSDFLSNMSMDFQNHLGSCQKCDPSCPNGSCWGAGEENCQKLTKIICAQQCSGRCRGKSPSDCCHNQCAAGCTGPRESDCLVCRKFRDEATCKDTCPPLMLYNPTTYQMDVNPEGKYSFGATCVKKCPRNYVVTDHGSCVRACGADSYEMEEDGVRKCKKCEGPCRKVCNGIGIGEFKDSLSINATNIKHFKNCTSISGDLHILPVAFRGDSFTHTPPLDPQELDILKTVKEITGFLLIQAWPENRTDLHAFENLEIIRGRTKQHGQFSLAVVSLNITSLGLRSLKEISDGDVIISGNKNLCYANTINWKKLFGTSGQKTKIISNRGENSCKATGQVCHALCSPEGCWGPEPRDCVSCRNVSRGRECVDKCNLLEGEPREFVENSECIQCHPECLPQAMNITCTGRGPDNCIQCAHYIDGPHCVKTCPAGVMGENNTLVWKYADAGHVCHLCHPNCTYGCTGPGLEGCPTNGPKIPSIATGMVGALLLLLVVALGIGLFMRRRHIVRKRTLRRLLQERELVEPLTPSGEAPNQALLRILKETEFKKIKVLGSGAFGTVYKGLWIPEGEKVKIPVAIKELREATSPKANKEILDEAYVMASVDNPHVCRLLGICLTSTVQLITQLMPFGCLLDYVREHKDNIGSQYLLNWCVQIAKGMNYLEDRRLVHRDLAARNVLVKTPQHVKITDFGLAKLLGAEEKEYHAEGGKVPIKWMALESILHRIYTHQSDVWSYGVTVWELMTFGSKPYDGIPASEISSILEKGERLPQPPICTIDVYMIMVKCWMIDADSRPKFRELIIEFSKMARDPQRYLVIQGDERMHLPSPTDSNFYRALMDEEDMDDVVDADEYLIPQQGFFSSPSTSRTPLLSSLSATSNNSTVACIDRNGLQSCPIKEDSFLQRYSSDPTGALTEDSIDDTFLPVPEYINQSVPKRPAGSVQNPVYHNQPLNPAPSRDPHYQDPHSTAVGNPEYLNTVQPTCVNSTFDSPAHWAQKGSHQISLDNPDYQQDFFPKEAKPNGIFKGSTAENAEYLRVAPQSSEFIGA
Experimental: For the time-dependent inhibition experiments, the activity of EGFR kinase was monitored using a HTRF® KinEASE-TK kit from Cisbio (62TK0PEC) as described above. Six compounds showing higher potency during dose response analysis against EGFR, were further evaluated for their change in inhibitory potency over time. Ibrutinib was used as a positive control. The selected compounds were pre incubated with the kinase at 11 different concentrations, ranging from […] to 25 uM final compound concentrations. The pre incubation times were 0, 2, 5, 10, 15, 30, 45 and 60 min. After the preincubation, the reaction was initiated by adding biotinylated substrate and ATP and the reaction was allowed to proceed for 45 min. […] The reaction was terminated by adding 31.25 nM SA-XL665 and 100 fold diluted europium labelled antibody (Eu-Ab), diluted in 1× detection buffer that contained EDTA. After 60 min of incubation, the fluorescence emission was measured at 620 nm and 665 nm. The ratio of Em 665 nm to Em 620 nm was proportional to the amount of substrate phosphorylated by the kinase. Product formation vs pre-incubation time data were fitted to a one phase exponential decay equation using GraphPad Prism. The same product formation vs inhibitor concentration data were also fitted to a log(antagonist) vs. response—Variable slope equation in GraphPad Prism to provide IC50 values at different pre incubation times.

[1] = biological target: His-tagged BTK protein (SEQ ID NO: 1) (Homo sapiens (Human), UniProt Q06187); assay: Intact mass analysis (LC-MS/MS) of covalent modification; assay type: binding; settings: His-tagged BTK (unmodified 32,650 Da) incubated with compound
Sequence of His-tagged BTK protein (SEQ ID NO: 1) (Q06187 other isoform, or with tags, fused parts or gaps): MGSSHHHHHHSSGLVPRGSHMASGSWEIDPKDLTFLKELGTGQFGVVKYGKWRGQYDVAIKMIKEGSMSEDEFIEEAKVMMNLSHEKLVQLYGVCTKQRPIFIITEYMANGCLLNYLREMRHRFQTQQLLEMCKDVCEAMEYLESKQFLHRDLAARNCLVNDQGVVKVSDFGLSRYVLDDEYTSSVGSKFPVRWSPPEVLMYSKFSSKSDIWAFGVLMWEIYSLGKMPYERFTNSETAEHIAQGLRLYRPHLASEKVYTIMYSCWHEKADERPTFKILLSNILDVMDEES
Experimental: The covalent modification of the proteins with the compounds were evaluated using intact mass analysis by liquid chromatography-mass spectrometry instrument (LC-MS/MS).
The reaction solution (20 μL) was prepared in 96-well plate and contained the protein (2 μM), the compound (100 μM), HEPES buffer (20 mM, pH 8), 2% DMSO, 2% glycerol, and 150 mM NaCl. The reaction was allowed to proceed for 24 h at 25° C. The reaction solution (1 μL) was injected into the LC/MS/MS without any further sample preparation.
The LC-MS/MS instrument comprises of a Waters G2-XS quadrupole-time of flight (QTof) mass spectrometer and a Waters Acuity I-class Ultra-High Performance Liquid Chromatography (UPLC) system. The I-class UPLC system includes a binary solvent manager (BSM), and a Acquity sample manager (SM). The mobile phase consisted of: A) 0.1% (v/v) formic acid in MilliQ water; B) 0.1% (v/v) formic acid acetonitrile. Gradients were run over 5 min and proceeded as follows: A:B, 85:15, 0.0-0.7 min, 85:15→15:85, 0.7-1.5 min, 10:90, 1.5-4 min, 10:90→85:15, 4-4.5 min, 85:15, 4.5-5 min. The analytical column was a Waters BEH C4 column 1.7 μm (50×1 mm) column with pore sizes of […]. The TOF MS data was collected in positive ion mode (m/z of 400-2000 Da) using MassLynx software (Waters).
The spectral deconvolution was performed using UNIFI software (Waters). The added mass of the protein upon covalent modification to cysteine residues were specified. Multiple modification of up to 8 cysteine was allowed. All the adducts with signal intensities of <2% of the base peak were ignored. The % modification was calculated as the adduct signal intensity over the total intensities of the protein peaks and the adducts.

Sequence of BTK (Q06187 whole entry): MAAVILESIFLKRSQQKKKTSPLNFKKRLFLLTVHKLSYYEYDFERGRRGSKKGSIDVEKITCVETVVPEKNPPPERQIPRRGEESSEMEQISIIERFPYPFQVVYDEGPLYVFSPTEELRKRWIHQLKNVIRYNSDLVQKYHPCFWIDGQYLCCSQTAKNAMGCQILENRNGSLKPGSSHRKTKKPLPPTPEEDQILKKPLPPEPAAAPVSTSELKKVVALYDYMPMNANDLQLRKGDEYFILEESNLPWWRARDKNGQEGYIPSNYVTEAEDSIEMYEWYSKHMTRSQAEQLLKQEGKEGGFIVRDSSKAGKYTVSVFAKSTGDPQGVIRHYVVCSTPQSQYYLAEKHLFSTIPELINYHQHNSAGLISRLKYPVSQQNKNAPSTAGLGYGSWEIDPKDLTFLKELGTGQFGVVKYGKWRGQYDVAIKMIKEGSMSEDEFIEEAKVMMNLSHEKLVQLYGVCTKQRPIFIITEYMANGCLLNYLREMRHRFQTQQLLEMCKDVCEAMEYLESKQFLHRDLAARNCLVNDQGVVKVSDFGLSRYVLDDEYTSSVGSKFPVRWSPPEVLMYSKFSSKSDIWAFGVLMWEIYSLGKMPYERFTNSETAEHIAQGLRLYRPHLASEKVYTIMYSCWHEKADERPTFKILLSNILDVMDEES

SMILES | Time-dependent inhibition of BTK: product formation versus pre-incubation time (BTK) | Time-dependent inhibition of BTK: IC50 values versus pre-incubation time (BTK) | Time-dependent inhibition of EGFR: product formation versus pre-incubation time (EGFR) | Time-dependent inhibition of EGFR: IC50 values versus pre-incubation time (EGFR) | covalent adduct mass (intact mass analysis, modification by one molecule) [1]
C[S@+]([O-])c1c(F)c(F)c(F)c(F)c1C(=O)N1CC(n2nc(-c3ccc(Oc4ccccc4)cc3)c3c(N)ncnc32)C1 (racemic) [Compound I-37, (3-(4-amino-3-(4-phenoxyphenyl)-1H-pyrazolo[3,4-d]pyrimidin-1-yl)azetidin-1-yl)(2,3,4,5-tetrafluoro-6-(methylsulfinyl)phenyl)methanone] | concentration-dependent first order loss of enzyme activity | decrease as pre-incubation times increase | concentration-dependent first order loss of enzyme activity | decrease as pre-incubation times increase | –
CS(=O)(=O)c1c(F)c(F)c(F)c(F)c1C(=O)NCCn1nc(-c2ccc(Oc3ccccc3)cc2)c2c(N)ncnc21 [Compound I-38, N-(2-(4-amino-3-(4-phenoxyphenyl)-1H-pyrazolo[3,4-d]pyrimidin-1-yl)ethyl)-2,3,4,5-tetrafluoro-6-(methylsulfonyl)benzamide] | concentration-dependent first order loss of enzyme activity | decrease as pre-incubation times increase | – | – | –
Nc1ncnc2c1c(-c1ccc(Oc3ccccc3)cc1)nn2[C@@H]1CCN(S(=O)(=O)c2c(F)c(F)c(F)c(F)c2OCF)C1 [Compound I-24, (R)-3-(4-phenoxyphenyl)-1-(1-((2,3,4,5-tetrafluoro-6-(fluoromethoxy)phenyl)sulfonyl)pyrrolidin-3-yl)-1H-pyrazolo[3,4-d]pyrimidin-4-amine] | – | – | – | – | 33,263 Da
C[S+]([O-])c1c(F)c(F)c(F)c(F)c1C(=O)Nc1cc2c(Nc3ccc(F)c(Cl)c3)ncnc2cc1OC1CCOC1 (stereo not shown) [Compound I-3] | – | – | concentration-dependent first order loss of enzyme activity | decrease as pre-incubation times increase | –
CN(CCn1nc(-c2ccc(Oc3ccccc3)cc2)c2c(N)ncnc21)C(=O)c1c(F)c(F)c(F)c(F)c1S(N)(=O)=O [Compound I-33, N-(2-(4-amino-3-(4-phenoxyphenyl)-1H-pyrazolo[3,4-d]pyrimidin-1-yl)ethyl)-2,3,4,5-tetrafluoro-N-methyl-6-sulfamoylbenzamide] | concentration-dependent first order loss of enzyme activity | decrease as pre-incubation times increase | – | – | –
C[S+]([O-])c1c(F)c(F)c(F)c(F)c1Nc1cc2c(Nc3ccc(F)c(Cl)c3)ncnc2cc1O[C@H]1CCOC1 (stereo partly drawn) [Compound I-4, N^4-(3-chloro-4-fluorophenyl)-N^6-(2,3,4,5-tetrafluoro-6-(methylsulfinyl)phenyl)-7-(((S)-tetrahydrofuran-3-yl)oxy)quinazoline-4,6-diamine] | – | – | concentration-dependent first order loss of enzyme activity | decrease as pre-incubation times increase | –
Nc1ncnc2c1c(-c1ccc(Oc3ccccc3)cc1)nn2CCCNC(=O)c1c(F)c(F)c(F)c(F)c1S(N)(=O)=O [Compound I-34, N-(3-(4-amino-3-(4-phenoxyphenyl)-1H-pyrazolo[3,4-d]pyrimidin-1-yl)propyl)-2,3,4,5-tetrafluoro-6-sulfamoylbenzamide] | concentration-dependent first order loss of enzyme activity | decrease as pre-incubation times increase | – | – | –
CN(C)S(=O)(=O)c1c(F)c(F)c(F)c(F)c1C(=O)NCCn1nc(-c2ccc(Oc3ccccc3)cc2)c2c(N)ncnc21 [Compound I-40, N-(2-(4-amino-3-(4-phenoxyphenyl)-1H-pyrazolo[3,4-d]pyrimidin-1-yl)ethyl)-2-(N,N-dimethylsulfamoyl)-3,4,5,6-tetrafluorobenzamide] | concentration-dependent first order loss of enzyme activity | decrease as pre-incubation times increase | – | – | –
CS(=O)(=O)c1c(F)c(F)c(F)c(F)c1Nc1cc2c(Nc3ccc(F)c(Cl)c3)ncnc2cc1O[C@H]1CCOC1 [Compound I-2, (S)—N^4-(3-chloro-4-fluorophenyl)-N^6-(2,3,4,5-tetrafluoro-6-(methylsulfonyl)phenyl)-7-((tetrahydrofuran-3-yl)oxy)quinazoline-4,6-diamine] | – | – | concentration-dependent first order loss of enzyme activity | decrease as pre-incubation times increase | –
